Results from patent US20240207263A1, “SELECTIVE MODULATORS OF ATAXIA TELA[…] (ATM) KINASE AND USES THEREOF” (priority 2021, published 2024).

Target: ATM (Homo sapiens (Human), UniProt Q13315)
Experiment: biochemical
Assay type: biochemical
Settings: not given
Description: Assay a): ATM Biochemical Potency
Data was collected by Caliper.

Sequence of ATM (Q13315 whole entry, looked up): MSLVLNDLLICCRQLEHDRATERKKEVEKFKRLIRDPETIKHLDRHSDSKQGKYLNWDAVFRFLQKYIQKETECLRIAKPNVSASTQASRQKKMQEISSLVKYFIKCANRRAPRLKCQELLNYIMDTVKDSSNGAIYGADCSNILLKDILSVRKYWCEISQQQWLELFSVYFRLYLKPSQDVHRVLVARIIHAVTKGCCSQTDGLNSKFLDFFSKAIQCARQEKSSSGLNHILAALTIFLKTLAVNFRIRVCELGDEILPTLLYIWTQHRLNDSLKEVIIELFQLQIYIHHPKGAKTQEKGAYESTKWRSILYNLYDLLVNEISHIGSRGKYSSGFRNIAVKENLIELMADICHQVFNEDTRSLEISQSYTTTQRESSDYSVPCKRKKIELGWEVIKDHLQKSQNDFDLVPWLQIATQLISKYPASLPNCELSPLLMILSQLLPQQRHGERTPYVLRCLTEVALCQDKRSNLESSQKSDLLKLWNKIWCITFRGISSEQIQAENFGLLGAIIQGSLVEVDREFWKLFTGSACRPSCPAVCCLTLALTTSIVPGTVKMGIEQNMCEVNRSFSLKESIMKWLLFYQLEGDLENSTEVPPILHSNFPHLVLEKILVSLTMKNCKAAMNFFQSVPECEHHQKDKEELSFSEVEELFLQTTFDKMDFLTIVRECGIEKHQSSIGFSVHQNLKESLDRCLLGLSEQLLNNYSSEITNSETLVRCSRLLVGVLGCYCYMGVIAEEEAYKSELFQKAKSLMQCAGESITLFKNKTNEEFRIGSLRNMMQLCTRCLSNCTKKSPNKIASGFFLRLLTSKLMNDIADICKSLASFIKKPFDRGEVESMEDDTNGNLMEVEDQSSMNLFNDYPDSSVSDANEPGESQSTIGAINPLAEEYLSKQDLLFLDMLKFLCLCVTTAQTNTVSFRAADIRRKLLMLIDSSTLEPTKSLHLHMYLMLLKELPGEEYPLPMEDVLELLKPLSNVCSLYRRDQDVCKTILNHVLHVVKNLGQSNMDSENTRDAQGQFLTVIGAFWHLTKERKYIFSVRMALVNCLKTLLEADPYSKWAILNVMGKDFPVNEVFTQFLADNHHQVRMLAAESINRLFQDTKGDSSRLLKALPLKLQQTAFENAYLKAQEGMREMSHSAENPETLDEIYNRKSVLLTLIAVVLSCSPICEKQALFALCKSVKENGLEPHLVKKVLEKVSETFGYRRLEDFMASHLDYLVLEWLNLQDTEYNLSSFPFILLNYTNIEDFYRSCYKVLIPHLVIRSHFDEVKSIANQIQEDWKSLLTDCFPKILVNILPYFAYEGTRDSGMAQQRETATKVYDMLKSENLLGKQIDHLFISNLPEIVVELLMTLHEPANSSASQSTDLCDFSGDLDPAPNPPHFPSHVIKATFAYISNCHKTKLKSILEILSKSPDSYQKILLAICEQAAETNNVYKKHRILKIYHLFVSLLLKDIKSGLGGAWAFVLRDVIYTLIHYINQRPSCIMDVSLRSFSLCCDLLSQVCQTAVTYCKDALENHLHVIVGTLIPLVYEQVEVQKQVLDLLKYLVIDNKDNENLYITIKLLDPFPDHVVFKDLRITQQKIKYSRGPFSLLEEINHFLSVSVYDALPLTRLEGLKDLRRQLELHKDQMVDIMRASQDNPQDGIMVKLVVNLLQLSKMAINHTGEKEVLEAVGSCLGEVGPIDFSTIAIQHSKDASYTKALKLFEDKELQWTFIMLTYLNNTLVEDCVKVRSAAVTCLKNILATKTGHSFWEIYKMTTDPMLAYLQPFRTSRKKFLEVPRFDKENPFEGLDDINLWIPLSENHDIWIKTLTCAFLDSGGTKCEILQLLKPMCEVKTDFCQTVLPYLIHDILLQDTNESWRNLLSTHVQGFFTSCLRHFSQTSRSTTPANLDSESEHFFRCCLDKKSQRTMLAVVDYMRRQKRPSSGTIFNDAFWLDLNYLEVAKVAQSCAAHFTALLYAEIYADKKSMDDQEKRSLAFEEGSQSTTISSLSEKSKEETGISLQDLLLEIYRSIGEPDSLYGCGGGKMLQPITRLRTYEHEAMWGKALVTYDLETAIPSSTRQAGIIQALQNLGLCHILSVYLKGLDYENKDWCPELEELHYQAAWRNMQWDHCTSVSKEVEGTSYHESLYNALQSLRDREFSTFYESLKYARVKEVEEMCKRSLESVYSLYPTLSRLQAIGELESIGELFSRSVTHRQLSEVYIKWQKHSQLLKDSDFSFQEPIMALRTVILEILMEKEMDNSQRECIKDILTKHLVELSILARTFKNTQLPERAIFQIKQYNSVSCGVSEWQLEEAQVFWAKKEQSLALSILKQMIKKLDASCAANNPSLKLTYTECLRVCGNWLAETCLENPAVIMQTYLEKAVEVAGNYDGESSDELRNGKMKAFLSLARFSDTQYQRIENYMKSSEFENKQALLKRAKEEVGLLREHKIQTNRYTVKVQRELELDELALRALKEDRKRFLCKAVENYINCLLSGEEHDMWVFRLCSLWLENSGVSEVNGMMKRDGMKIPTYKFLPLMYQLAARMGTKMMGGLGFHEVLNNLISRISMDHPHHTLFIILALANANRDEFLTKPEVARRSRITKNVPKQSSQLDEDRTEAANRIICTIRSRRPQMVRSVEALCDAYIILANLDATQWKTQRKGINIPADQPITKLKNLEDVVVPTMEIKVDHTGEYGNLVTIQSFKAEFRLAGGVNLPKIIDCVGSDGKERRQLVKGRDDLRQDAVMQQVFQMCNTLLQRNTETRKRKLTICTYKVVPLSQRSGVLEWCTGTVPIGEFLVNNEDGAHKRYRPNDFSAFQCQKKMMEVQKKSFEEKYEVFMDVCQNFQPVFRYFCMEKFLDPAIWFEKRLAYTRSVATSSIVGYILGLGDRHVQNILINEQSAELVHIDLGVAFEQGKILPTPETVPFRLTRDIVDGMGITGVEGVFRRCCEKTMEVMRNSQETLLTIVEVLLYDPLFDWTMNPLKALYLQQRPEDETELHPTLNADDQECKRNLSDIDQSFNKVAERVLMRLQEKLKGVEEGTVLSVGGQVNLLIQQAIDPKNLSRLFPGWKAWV

Row | SMILES | IC50 [nM]
1 | C[C@@H](OCCN1CCC2(COC2)C1)c1ccc(-c2ccc3nnc4c(c3c2)n(C2CCOCC2)c(=O)n4C)cn1 [Example 116, (R)-8-(6-(1-(2-(2-oxa-6-azaspiro[3.4]octan-6-yl)ethoxy)ethyl)pyridin-3-yl)-3-methyl-1-(tetrahydro-2H-pyran-4-yl)-1H-imidazo[4,5-c]cinnolin-2(3H)-one] | 2.9

Same assay, conditions: read-out: ATM IC50

Row | SMILES | IC50 [nM]
2 | CC(OCCN1CC2C(C1)C2(F)F)c1ccc(-c2ccc3nnc4c(c3c2)n(C(C)C)c(=O)n4C)cn1 (stereo in doubt) [Example 71, 8-(6-((1R)-1-(2-(6,6-difluoro-3-azabicyclo[3.1.0]hexan-3-yl)ethoxy)ethyl)pyridin-3-yl)-1-isopropyl-3-methyl-1H-imidazo[4,5-c]cinnolin-2(3H)-one] | 9.3
3 | CO[C@H]1C[C@H](n2c(=O)n(C)c3nnc4ccc(-c5ccc(COCCN6CCCC6)nc5)cc4c32)C1 [Example 166, 1-(trans-3-methoxycyclobutyl)-3-methyl-8-(6-((2-(pyrrolidin-1-yl)ethoxy)methyl)pyridin-3-yl)-1H-imidazo[4,5-c]cinnolin-2(3H)-one] | 58
4 | CC(C)n1c(=O)n(C)c2nnc3ccc(-c4ccc([C@@H](C)OCCN5CCC6(CCO6)CC5)nc4)cc3c21 [Example 82, (R)-8-(6-(1-(2-(1-oxa-7-azaspiro[3.5]nonan-7-yl)ethoxy)ethyl)pyridin-3-yl)-1-isopropyl-3-methyl-1H-imidazo[4,5-c]cinnolin-2(3H)-one] | 3.4
5 | COCCOCc1ccc(-c2ccc3nnc4c(c3c2)n(C(C)C)c(=O)n4C)cn1 [Example 6, 1-isopropyl-8-(6-((2-methoxyethoxy)methyl)py-ridin-3-yl)-3-methyl-1H-imidazo[4,5-c]cinnolin-2(3H)-one] | 469
6 | CC(C)n1c(=O)n(C)c2nnc3ccc(-c4ccc(COC5CN(C)C5)nc4)cc3c21 [Example 15, 1-isopropyl-3-methyl-8-(6-(((1-methylazetidin-3-yl)oxy)methyl)pyridin-3-yl)-1H-imidazo[4,5-c]cinnolin-2(3H)-one] | 134
7 | CC(C)n1c(=O)n(C)c2nnc3ccc(-c4ccc([C@@H](C)OCCN5CCC(OC(F)(F)F)C5)nc4)cc3c21 (some centres unmarked) [Example 60] | 2.8
8 | CC(C)n1c(=O)n(C)c2nnc3ccc(-c4ccc(COCCN5CCC(OC(F)(F)F)CC5)nc4)cc3c21 [Example 47, 1-isopropyl-3-methyl-8-(6-((2-(4-(trifluoromethoxy)piperidin-1-yl)ethoxy)methyl)pyridin-3-yl)-1H-imidazo[4,5-c]cinnolin-2(3H)-one] | 2.2
9 | CC(C)n1c(=O)n(C)c2nnc3ccc(-c4ccc(COC5CCCN(C)C5)nc4)cc3c21 (centres unmarked) [Example 13, 1-isopropyl-3-methyl-8-(6-(((1-methylpiperidin-3-yl)oxy)methyl)pyridin-3-yl)-1H-imidazo[4,5-c]cinnolin-2(3H)-one] | 144
10 | Cn1c(=O)n(C2CCOCC2)c2c3cc(-c4ccc(COCCN5CCC(OC(F)(F)F)CC5)nc4)ccc3nnc21 [Example 101, 3-methyl-1-(tetrahydro-2H-pyran-4-yl)-8-(6-((2-(4-(trifluoromethoxy)piperidin-1-yl)ethoxy)methyl)pyridin-3-yl)-1H-imidazo[4,5-c]cinnolin-2(3H)-one] | 3.7
11 | C[C@H]1CCN(CCO[C@H](C)c2ccc(-c3ccc4nnc5c(c4c3)n(C3CCOCC3)c(=O)n5C)cn2)C1 [Example 126, 3-methyl-8-(6-((R)-1-(2-((S)-3-methylpyrrolidin-1-yl)ethoxy)ethyl)pyridin-3-yl)-1-(tetrahydro-2H-pyran-4-yl)-1H-imidazo[4,5-c]cinnolin-2(3H)-one] | 20
12 | CC(C)n1c(=O)n(C)c2nnc3cc(F)c(-c4ccc([C@@H](C)OCCN5CCC(C)(C#N)C5)nc4)cc3c21 (stereo partly drawn) [Example 147, 1-(2-((R)-1-(5-(7-fluoro-1-isopropyl-3-methyl-2-oxo-2,3-dihydro-1H-imidazo[4,5-c]cinnolin-8-yl)pyridin-2-yl)ethoxy)ethyl)-3-methylpyrrolidine-3-carbonitrile] | 23
13 | CC(C)n1c(=O)n(C)c2nnc3cc(F)c(-c4ccc(COCCN5CCC(C)(C)C5)nc4)cc3c21 [Example 132, 8-(6-((2-(3,3-dimethylpyrrolidin-1-yl)ethoxy)methyl)pyridin-3-yl)-7-fluoro-1-isopropyl-3-methyl-1H-imidazo[4,5-c]cinnolin-2(3H)-one] | 22
14 | COC1CCCN(CCOCc2ccc(-c3ccc4nnc5c(c4c3)n(C(C)C)c(=O)n5C)cn2)C1 (centres unmarked) [Example 41, 1-isopropyl-8-(6-((2-(3-methoxypiperidin-1-yl)ethoxy)methyl)pyridin-3-yl)-3-methyl-1H-imidazo[4,5-c]cinnolin-2(3H)-one] | 50
15 | CC(C)n1c(=O)n(C)c2nnc3cc(F)c(-c4ccc([C@@H](C)OCCN5CCC(F)CC5)nc4)cc3c21 [Example 136, (R)-7-fluoro-8-(6-(1-(2-(4-fluoropiperidin-1-yl)ethoxy)ethyl)pyridin-3-yl)-1-isopropyl-3-methyl-1,3-dihydro-2H-imidazo[4,5-c]cinnolin-2-one] | 10
16 | CO[C@H]1CCN(CCO[C@H](C)c2ccc(-c3cc4c(cc3F)nnc3c4n(C(C)C)c(=O)n3C)cn2)C1 [Example 138, 7-fluoro-1-isopropyl-8-(6-((R)-1-(2-((S)-3-methoxypyrrolidin-1-yl)ethoxy)ethyl)pyridin-3-yl)-3-methyl-1H-imidazo[4,5-c]cinnolin-2(3H)-one] | 14
17 | CC(C)n1c(=O)n(C)c2nnc3ccc(-c4ccc(COCCN5CC[C@H](F)C5)nc4)cc3c21 [Example 34, (S)-8-(6-((2-(3-fluoropyrrolidin-1-yl)ethoxy)methyl)pyridin-3-yl)-1-isopropyl-3-methyl-1H-imidazo[4,5-c]cinnolin-2(3H)-one] | 47
18 | CC(C)n1c(=O)n(C)c2nnc3ccc(-c4ccc(COC5CCN(C)CC5)nc4)cc3c21 [Example 7, 1-isopropyl-3-methyl-8-(6-(((1-methylpiperidin-4-yl)oxy)methyl)pyridin-3-yl)-1H-imidazo[4,5-c]cinnolin-2(3H)-one] | 227
19 | CC(OCCN1CC2C(C1)C2(F)F)c1ccc(-c2ccc3nnc4c(c3c2)n(C(C)C)c(=O)n4C)cn1 (stereo in doubt) [Example 70, 8-(6-((1S)-1-(2-(6,6-difluoro-3-azabicyclo[3.1.0]hexan-3-yl)ethoxy)ethyl)pyridin-3-yl)-1-isopropyl-3-methyl-1H-imidazo[4,5-c]cinnolin-2(3H)-one] | 295
20 | CC(CN1CC2CC2C1)OCc1ccc(-c2ccc3nnc4c(c3c2)n(C(C)C)c(=O)n4C)cn1 (centres unmarked) [Example 21, 8-(6-(((1-(3-azabicyclo[3.1.0]hexan-3-yl)propan-2-yl)oxy)methyl)pyridin-3-yl)-1-isopropyl-3-methyl-1H-imidazo[4,5-c]cinnolin-2(3H)-one] | 139
21 | CC(C)n1c(=O)n(C)c2nnc3cc(F)c(-c4ccc([C@@H](C)OCCN5CCC(OC(F)(F)F)C5)nc4)cc3c21 (stereo partly drawn) [Example 141, 7-fluoro-1-isopropyl-3-methyl-8-(6-((1R)-1-(2-(3-(trifluoromethoxy)pyrrolidin-1-yl)ethoxy)ethyl)pyridin-3-yl)-1H-imidazo[4,5-c]cinnolin-2(3H)-one] | 6.3
22 | COC[C@@H]1CCN(CCO[C@H](C)c2ccc(-c3ccc4nnc5c(c4c3)n(C3CCOCC3)c(=O)n5C)cn2)C1 [Example 119, 8-(6-((R)-1-(2-((R)-3-(methoxymethyl)pyrrolidin-1-yl)ethoxy)ethyl)pyridin-3-yl)-3-methyl-1-(tetrahydro-2H-pyran-4-yl)-1H-imidazo[4,5-c]cinnolin-2(3H)-one] | 2.4
23 | CC(C)n1c(=O)n(C)c2nnc3ccc(-c4ccc([C@@H](C)OCCN5CC[C@@H](S(C)(=O)=O)C5)nc4)cc3c21 [Example 79, 1-isopropyl-3-methyl-8-(6-((R)-1-(2-((R)-3-(methylsulfonyl)pyrrolidin-1-yl)ethoxy)ethyl)pyridin-3-yl)-1H-imidazo[4,5-c]cinnolin-2(3H)-one] | 37
24 | CC(C)n1c(=O)n(C)c2nnc3ccc(-c4ccc(COCC(C)(C)N5CC6CC6C5)nc4)cc3c21 (centres unmarked) [Example 17, 8-(6-((2-(3-azabicyclo[3.1.0]hexan-3-yl)-2-methylpropoxy)methyl)pyridin-3-yl)-1-isopropyl-3-methyl-1H-imidazo[4,5-c]cinnolin-2(3H)-one] | 464
25 | CO[C@H]1C[C@@H](n2c(=O)n(C)c3nnc4ccc(-c5ccc([C@@H](C)OCCN6CCC7(CC7)C6)nc5)cc4c32)C1 [Example 171, 8-(6-((R)-1-(2-(5-azaspiro[2.4]heptan-5-yl)ethoxy)ethyl)pyridin-3-yl)-1-(cis-3-methoxycyclobutyl)-3-methyl-1H-imidazo[4,5-c]cinnolin-2(3H)-one] | 2.5
26 | C[C@@H](OCCN1CCC2(CCC2)CC1)c1ccc(-c2ccc3nnc4c(c3c2)n(C2CCOCC2)c(=O)n4C)cn1 [Example 124, (R)-8-(6-(1-(2-(7-azaspiro[3.5]nonan-7-yl)ethoxy)ethyl)pyridin-3-yl)-3-methyl-1-(tetrahydro-2H-pyran-4-yl)-1H-imidazo[4,5-c]cinnolin-2(3H)-one] | 1.1
27 | CC(C)n1c(=O)n(C)c2nnc3ccc(-c4ccc([C@@H](C)OCC(=O)O)nc4)cc3c21 [Example 216, (R)-2-(1-(5-(1-isopropyl-3-methyl-2-oxo-2,3-dihydro-1H-imidazo[4,5-c]cinnolin-8-yl)pyridin-2-yl)ethoxy)acetic acid] | 339
28 | CO[C@H]1C[C@@H](n2c(=O)n(C)c3nnc4ccc(-c5ccc(COCCN6CCCCC6)nc5)cc4c32)C1 [Example 173, 1-(cis-3-methoxycyclobutyl)-3-methyl-8-(6-((2-(piperidin-1-yl)ethoxy)methyl)pyridin-3-yl)-1H-imidazo[4,5-c]cinnolin-2(3H)-one] | 32
29 | CC(C)n1c(=O)n(C)c2nnc3ccc(-c4ccc(COCCN5CC6CCC5C6)nc4)cc3c21 (centres unmarked) [Example 39, 8-(6-((2-(2-azabicyclo[2.2.1]heptan-2-yl)ethoxy)methyl)pyridin-3-yl)-1-isopropyl-3-methyl-1H-imidazo[4,5-c]cinnolin-2(3H)-one] | 73
